Assay results published in US20170080198A1, “DEVICES AND METHODS FOR ENHANCING THE TOPICAL APPLICATION OF A BENEFIT AGENT” (Johnson & Johnson Consummer Inc., priority 2015, published 2017).

Assay: In vitro skin permeation study, Franz diffusion cell, with or without ultrasound (sonophoresis)
Format: in vitro ADME, human
Details: for UT60°/Non-UTGel 1 (permeation enhancement factor): Study 2, Gel 1 with 60° sonophoresis vs Gel 1 passive; for UT15°/Non-UTGel 1 (permeation enhancement factor) / UT90°/Non-UTGel 1 (permeation enhancement factor): Study 3; for UT15°/Non-UTGel 1 (permeation enhancement factor): Gel 1 with 15° sonophoresis vs Gel 1 passive; for UT90°/Non-UTGel 1 (permeation enhancement factor): Gel 1 with 90° sonophoresis vs Gel 1 passive
Text: The experimental setup to run sonophoresis (ultrasound) studies with Franz cell diffusion cells consisted of a custom-built universal generator capable of driving ultrasonic transducers in the 20 kHz-2 MHz range with electronic power up to 60 W (Voltage+/−30V, Current: 2A, duty cycle 50%) with a square waveform. The real power delivered to the transducer depended on the specific experimental conditions and is specified for each experiment. The driving waveform was delivered to the transducer through a coaxial cable having a BNC connector at one end and a custom non-coaxial connector at the transducer end.
The tranducer was piezoelectric and had either a disk shaped form (either 20 or 25 mm in diameter) or a rectangular shape 10×20 mm^2). The thickness of the transducer depended on its fundamantal frequency being inversely proportional with it. In order to prevent the liquid or the gel from perturbing the electrical connection, each transducer was encapsulated in a plastic case leaving only one side of the transducer exposed to the topical composition. The case was made out of a rigid plastic and the transducers were sealed with silicone adhesive to enable them to oscilalte more or less freely. The case also enabled the electrical connections to be isolated from the topical composition.
For sonophoresis experiments where the ultrasonic wave energy was delivered perpendicular to the skin, disk-shaped transducers were used in the encapsulation setup described above. For the angled ultrasound application the case encapsulating the ultrasonic transducer was assembled in a hinged configuration, enabling angles between 15 and 90 degrees (perpendicular). Note: an angle of 0 degrees would send the ultrasonic wave parallel with the skin surface.
In vitro skin permeation studies on 5% Ibuprofen gel compositions without ultrasound (passive diffusion), or facilitated by the application of ultrasound (sonophoresis), through human cadaver skin were performed as follows:
A skin penetration study evaluated the penetration of ibuprofen through the human skin for the inventive sample prepared as disclosed in Example 1. A commercial ibuprofen gel product, IBULEVE Ibuprofen Gel (by DDD ltd, Watford, Herts, WD18 7JJ, UK) was used as a benchmark, which contains 5% W/W ibuprofen, also IMS (Industrial Methylated Spirits), carbomer, propylene glycol, diethylamine and purified water according to the product label on its package. A well-known Franz diffusion cell method (taught in US20020006418 A1 which is hereby incorporated by reference) was used. […] A magnetic stirrer bar was added in the […]. The liquid receptor was filled with Phosphate-buffered saline (PBS) solution. Air bubbles in the […] were removed. The system was thermostated at 37° C. above a magnetic stirrer to ensure the homogeneity of the liquid receptor during the experiment. A human cadaver skin sample from a commercial tissue bank (Ohio Valley Tissue and Skin Center, Cincinnati, Ohio, dermatomed to approximately 0.4 mm) was cut to fit the glass diffusion cell and the skin was mounted on the Franz cell.
For the diffusion cells designated to be tested for passive diffusion, a test gel sample of 0.2 ml was applied on the skin surface. For the diffusion cells designated to test for sonophoresis, additional test sample (2-5 ml) was added in order to assure the entire, or at least a large portion, of the ultrasonic transducer tip was immersed by the test gel during the ultrasound treatment. The excess gel was promptly removed from the donor cell after the ultrasound treatment so that the remaining test gel was approximately 0.2 ml.
Ultrasound treatments were carried out with the following test conditions: • a) Conventional ultrasound treatment with 90 degree angle (°) between the ultrasound direction and the skin surface; • b) Angled Ultrasound treatment with less than 90 degree angle between the ultrasound direction and the skin surface. […]

## CC(C)Cc1ccc(C(C)C(=O)O)cc1 (stereo not drawn) [ibuprofen]
6 hr
  UT60°/Non-UTGel 1 (permeation enhancement factor): approximately 2.9 fold
  UT15°/Non-UTGel 1 (permeation enhancement factor): approximately 3.0 fold
  UT90°/Non-UTGel 1 (permeation enhancement factor): approximately 2.3 fold
24 hr
  UT60°/Non-UTGel 1 (permeation enhancement factor): ~2.0 fold
  UT15°/Non-UTGel 1 (permeation enhancement factor): approximately 3.0 fold
  UT90°/Non-UTGel 1 (permeation enhancement factor): ~2.0 fold
